Measured values taken from patent publication EP3865489A1, “SPIROCYCLIC INHIBITORS OF HEPATITIS B VIRUS” (priority 2020, dated 2021).

Each molecule was assayed on HBV (assay: Anti-HBV activity in vitro: extracellular HBV DNA quantified by direct qPCR in HepAD38 cells). Conditions: Hepatitis B virus, doxycycline-free medium, 96 hours at 37°C, reported as EC50 threshold value, read-out: HBV inh EC50.
Type: cell-based
Description: HepAD38 cell line (Ladner et al., Antimicrob Agents Chemother, 1997, 41, 1715-20) was used for HBV inhibition assays. HepAD38 is a subclone, derived from Hepatoblastoma cell line HepG2 (ATCC® Number: HB-8065™), that expresses HBV genome under the transcriptional control of a tetracycline-responsive promoter in a TET-OFF system: addition of tetracycline (TET) or doxycycline suppresses HBV replication, while its removal switches on the process allowing HBV viral particles release in the cell supernatant. HepAD38 cell line is maintained in DMEM/F12, supplemented with 10% of fetal bovine serum, 1% of glutamine, 1% of penicillin/streptomycin, 0.4 mg/ml G418 and 0,3 ug/ml tetracycline. For the HBV inhibition assay, doxycycline-free medium is used in order to allow virion production.
HBV inhibition activity in vitro was performed in 96 multiwell plates. During the initial (primary) screening, compounds were first tested in triplicates at concentrations of 0.02 µM, 0.1µM, 0.5µM and 1µM. For selected compounds, an 8-point dose-response curve was obtained using 1:2 serial dilutions (starting from 0.01µM, 0.1µM, 0.4µM or 5 µM, depending on the degree of inhibition observed during the primary screening). From the dose-response curves, half maximal effective concentration (EC50) could be calculated (see also below).
In more detail, compounds - typically dissolved in DMSO stock solutions - were diluted to 2x the final desired concentration in 100 µl of the above medium (without doxycycline) and plated in three replicates in the 96-well plates. […]
Plates were then incubated 96 hours at 37°C and then subjected to cell viability assays and extracellular HBV quantification, in order to evaluate both the cytotoxic potential and the antiviral activity of compounds. Cytotoxicity was assessed by a commercial fluorescence assay that measures the metabolic activity of cells, directly related to cell viability (Cell Titer Blue, Promega). Anti-HBV activity was evaluated by quantification of extracellular HBV DNA with direct qPCR. […]
For `C[C@H](NC(=O)C(=O)N1CCC2(COc3c(cn(C)c3C(=O)Nc3ccc(F)c(F)c3)S(=O)(=O)N2)C1)C(F)(F)F` (stereo in doubt) [Example E1, N-(3,4-difluorophenyl)-7'-methyl-1-(2-oxo-2-(((S)-1,1,1-trifluoropropan-2-yl)amino)acetyl)-2'H,4'H,7'H-spiro[pyrrolidine-3,3'-pyrrolo[3,4-b][1,4,5]oxathiazepine]-6'-carboxamide 1',1'-dioxide], the EC50 was < 500 nM.
With `C[C@H](NC(=O)C(=O)N1CCC2(COc3c(c(Cl)n(C)c3C(=O)Nc3ccc(F)c(F)c3)S(=O)(=O)N2)C1)C(F)(F)F` (stereo in doubt) [Example E3, 8'-chloro-N-(3,4-difluorophenyl)-7'-methyl-1-(2-oxo-2-(((S)-1,1,1-trifluoropropan-2-yl)amino)acetyl)-2'H,4'H,7'H-spiro[pyrrolidine-3,3'-pyrrolo[3,4-b][1,4,5]oxathiazepine]-6'-carboxamide 1',1'-dioxide] the EC50 was < 500 nM.
With `Cc1nnc(C(=O)N2CCC3(COc4c(cn(C)c4C(=O)Nc4ccc(F)c(F)c4)S(=O)(=O)N3)C2)o1` (stereo not drawn) [Example E2, N-(3,4-difluorophenyl)-7'-methyl-1-(5-methyl-1,3,4-oxadiazole-2-carbonyl)-2'H,4'H,7'H-spiro[pyrrolidine-3,3'-pyrrolo[3,4-b][1,4,5]oxathiazepine]-6'-carboxamide 1',1'-dioxide] the EC50 was < 500 nM.
